According to patent US20240059691A1 (KALVISTA PHARMACEUTICALS LIMITED, priority 2020, published 2024):
pIC50: −log10 of the molar value.

Legend:
Assay type in all cases: biochemical
FXIa = FXIa (Homo sapiens (Human), UniProt P03951); experiment: Determination of related protease inhibition: FXIa (fixed substrate concentration of 100 μM); conditions: 25° C.
Description: (§1) Determination of Related Protease Inhibition
(§2) In vitro inhibition of related proteases was determined using an ([…] assay based on standard literature methods (see e.g. Shori et al., Biochem. Pharmacol., 1992, 43, 1209; Bouckaert et al., European Journal of Medicinal Chemistry 110 (2016) 181). Human serine protease enzymes Plasma Kallikrein, KLK1, FXa, Plasmin, Thrombin and Trypsin were assayed for enzymatic activity using an appropriate fluorogenic substrate at Km concentration, FXIa at fixed substrate concentration of 100 μM, and various concentrations of the test compound. Protease activity was measured by monitoring the accumulation of liberated fluorescence from the substrate over […]. The linear rate of fluorescence increase per minute was expressed as percentage (%) activity. IC50 values were calculated as the concentration of inhibitor giving 50% inhibition of the uninhibited enzyme activity (100%).

FXa = FXa (Homo sapiens (Human), UniProt P00742); experiment: Determination of related protease inhibition: FXa (fluorogenic substrate at Km); conditions: 25° C.
Chain of FXa (P00742 235-488): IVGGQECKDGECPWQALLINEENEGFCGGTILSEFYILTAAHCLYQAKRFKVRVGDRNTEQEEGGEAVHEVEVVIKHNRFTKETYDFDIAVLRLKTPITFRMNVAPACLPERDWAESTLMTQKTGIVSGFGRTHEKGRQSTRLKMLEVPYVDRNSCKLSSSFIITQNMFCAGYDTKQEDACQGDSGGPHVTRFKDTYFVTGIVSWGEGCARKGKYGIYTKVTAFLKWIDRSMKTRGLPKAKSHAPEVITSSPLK
Chain of FXa (P00742 41-179 partner): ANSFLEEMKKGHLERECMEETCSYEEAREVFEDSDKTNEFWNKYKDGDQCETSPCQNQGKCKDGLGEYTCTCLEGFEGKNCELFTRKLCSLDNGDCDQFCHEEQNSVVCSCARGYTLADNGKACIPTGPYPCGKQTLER
Procedure, shortened: (§3)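 IC50 derived as the concentration halving uninhibited activity, from linear fluorescence increase per minute monitored 5 min at 25 °C. Each human protease was run with its fluorogenic substrate at Km concentration across a range of test compound concentrations.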

Plasma Kallikrein = Plasma Kallikrein (Homo sapiens (Human), UniProt P03952); experiment: Determination of related protease inhibition: Plasma Kallikrein (fluorogenic substrate at Km); conditions: 25° C., read-out: IC50 (human PKal)
Chain of Plasma Kallikrein (P03952 391-638): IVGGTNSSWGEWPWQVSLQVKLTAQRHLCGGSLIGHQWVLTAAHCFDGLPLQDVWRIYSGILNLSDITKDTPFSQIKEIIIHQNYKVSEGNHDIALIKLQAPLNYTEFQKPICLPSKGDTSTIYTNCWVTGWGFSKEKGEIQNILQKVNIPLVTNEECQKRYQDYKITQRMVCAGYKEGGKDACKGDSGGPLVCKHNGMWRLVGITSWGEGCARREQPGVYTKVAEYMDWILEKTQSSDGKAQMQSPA
Chain of Plasma Kallikrein (P03952 20-390 partner): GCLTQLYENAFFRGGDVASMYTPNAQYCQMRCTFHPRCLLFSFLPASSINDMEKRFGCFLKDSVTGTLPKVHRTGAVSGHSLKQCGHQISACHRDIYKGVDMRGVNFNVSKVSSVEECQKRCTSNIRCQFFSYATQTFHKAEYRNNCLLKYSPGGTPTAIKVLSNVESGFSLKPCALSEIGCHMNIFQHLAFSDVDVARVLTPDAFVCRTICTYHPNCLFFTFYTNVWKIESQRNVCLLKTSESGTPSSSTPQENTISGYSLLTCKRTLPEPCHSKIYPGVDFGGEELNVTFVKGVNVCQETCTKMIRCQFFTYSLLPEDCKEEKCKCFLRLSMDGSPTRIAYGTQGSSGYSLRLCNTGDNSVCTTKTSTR
Procedure, shortened: as §3

Human Factor XIIa = Human Factor XIIa (Homo sapiens (Human), UniProt P00748); experiment: Determination of FXIIa inhibition (fluorogenic substrate H-DPro-Phe-Arg-AFC, IC50 assay); conditions: substrate H-DPro-Phe-Arg-AFC at Km, 25° C.; class scale A-G
Chain of Human Factor XIIa (P00748 373-615): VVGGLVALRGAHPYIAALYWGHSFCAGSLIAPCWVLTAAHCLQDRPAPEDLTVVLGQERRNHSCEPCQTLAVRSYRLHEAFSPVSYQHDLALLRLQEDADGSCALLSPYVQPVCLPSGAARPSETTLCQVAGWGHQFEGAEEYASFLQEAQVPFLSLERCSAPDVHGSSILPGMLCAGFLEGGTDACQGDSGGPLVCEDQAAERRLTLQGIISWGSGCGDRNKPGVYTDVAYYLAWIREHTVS
Procedure, shortened: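 IC50 derived from % remaining activity, taken as the linear fluorescence rate over a 5 min read at 25° C. Substrate H-DPro-Phe-Arg-AFC was used at its Km (Michaelis-Menten) with human FXIIa and serial compound dilutions, 25° C.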

Thrombin = Thrombin (Homo sapiens (Human), UniProt P00734); experiment: Determination of related protease inhibition: Thrombin (fluorogenic substrate at Km); conditions: 25° C.
Description: as §1, §2

KLK1 = KLK1 (Homo sapiens (Human), UniProt P06870); experiment: Determination of related protease inhibition: KLK1 (fluorogenic substrate at Km); conditions: 25° C.
Chain of KLK1 (P06870 25-262): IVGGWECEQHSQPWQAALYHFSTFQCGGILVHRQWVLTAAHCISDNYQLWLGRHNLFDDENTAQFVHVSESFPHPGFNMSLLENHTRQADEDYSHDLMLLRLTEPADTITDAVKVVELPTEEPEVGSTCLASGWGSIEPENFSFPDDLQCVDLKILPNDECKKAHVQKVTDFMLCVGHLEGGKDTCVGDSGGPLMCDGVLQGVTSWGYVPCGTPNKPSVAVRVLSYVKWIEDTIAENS
Procedure, shortened: as §3

Chain of FXIa (P03951 388-625): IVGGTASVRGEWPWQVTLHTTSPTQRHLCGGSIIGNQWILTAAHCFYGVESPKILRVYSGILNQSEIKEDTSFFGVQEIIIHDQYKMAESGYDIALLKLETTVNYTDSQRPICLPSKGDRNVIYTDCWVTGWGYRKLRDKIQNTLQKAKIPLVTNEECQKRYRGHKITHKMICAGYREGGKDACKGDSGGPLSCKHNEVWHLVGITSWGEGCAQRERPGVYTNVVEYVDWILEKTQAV
Chain of FXIa (P03951 19-387 partner): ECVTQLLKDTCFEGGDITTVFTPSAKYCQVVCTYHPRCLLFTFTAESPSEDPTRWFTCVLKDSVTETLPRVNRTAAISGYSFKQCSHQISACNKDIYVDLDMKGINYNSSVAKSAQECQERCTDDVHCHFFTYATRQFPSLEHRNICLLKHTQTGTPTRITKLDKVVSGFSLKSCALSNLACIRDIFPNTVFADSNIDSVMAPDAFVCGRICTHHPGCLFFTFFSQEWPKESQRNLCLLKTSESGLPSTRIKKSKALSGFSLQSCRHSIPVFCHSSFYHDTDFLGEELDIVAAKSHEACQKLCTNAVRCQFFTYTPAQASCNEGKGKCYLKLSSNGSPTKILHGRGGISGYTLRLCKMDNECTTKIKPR

Row | Structure (SMILES) | pIC50 (FXIa) | pIC50 (FXa) | pIC50 (Plasma Kallikrein) | pIC50 (Human Factor XIIa) | pIC50 (Thrombin) | pIC50 (KLK1)
1 | CN1CCC(COc2ccc(CNc3ccc4c(N)nccc4c3)cn2)CC1 [Example 1005, N6-((6-((1-methylpiperidin-4-yl)methoxy)pyridin-3-yl)methyl)isoquinoline-1,6-diamine] | < 4.40 | 5.00 to 5.52 | 5.00 to 5.52 | 6.52 to 7.00 | 4.40 to 5.00 | –
2 | CN1CCC(COc2ccc(CNc3ccc4cnccc4c3)cn2)CC1 [Example 1008, N-((6-((1-methylpiperidin-4-yl)methoxy)pyridin-3-yl)methyl)isoquinolin-6-amine] | < 4.70 | < 4.70 | 4.40 to 5.00 | 5.00 to 5.52 | < 4.70 | –
3 | CN1CCC(OCc2ccc(CNc3ccc4c(N)nccc4c3)cc2)C(F)(F)C1 (stereo not drawn) [Example 2194, N6-(4-(((3,3-difluoro-1-methylpiperidin-4-yl)oxy)methyl)benzyl)isoquinoline-1,6-diamine] | < 4.40 | 4.40 to 5.00 | 4.40 to 5.00 | 5.52 to 6.00 | 4.40 to 5.00 | –
4 | Nc1nccc2cc(NCc3ccnc(-c4cccc(CN5CCCC5)c4)c3)ccc12 [Example 5434, N6-((2-(3-(pyrrolidin-1-ylmethyl)phenyl)pyridin-4-yl)methyl)isoquinoline-1,6-diamine] | < 4.40 | 5.52 to 6.00 | 5.52 to 6.00 | 5.52 to 6.00 | 5.52 to 6.00 | –
5 | Nc1nccc2cc(NCc3ccc(COC4CCN(CC(F)F)CC4)cc3)ccc12 [Example 2196, 6-N-{[4-({[1-(2,2-difluoroethyl)piperidin-4-yl]oxy}methyl)phenyl]methyl}isoquinoline-1,6-diamine] | < 4.40 | 4.40 to 5.00 | 4.40 to 5.00 | 5.52 to 6.00 | 4.40 to 5.00 | –
6 | CN1CC2C[C@@H]1C[C@H]2OCc1ccc(CNc2ccc3c(N)nccc3c2)c(F)c1 (single isomer, unassigned) [Example 2199, N6-(2-fluoro-4-((((4R*,5R*)-2-methyl-2-azabicyclo[2.2.1]heptan-5-yl)oxy)methyl)benzyl)isoquinoline-1,6-diamine] | < 4.70 | 5.00 to 5.52 | 5.00 to 5.52 | 7.00 to 8.00 | 4.40 to 5.00 | –
7 | Cn1ccnc1CCOc1cc(CNc2cccc3c(N)nccc23)ccn1 [Example 4282, 5-N-({2-[2-(1-methylimidazol-2-yl)ethoxy]pyridin-4-yl}methyl)isoquinoline-1,5-diamine] | – | 4.40 to 5.00 | < 4.40 | 5.52 to 6.00 | < 4.40 | 5.00 to 5.52
8 | Cc1cc2c(NCc3ccc(NCC4CCN(C)CC4)nc3)ccnc2[nH]1 [Example 1202, 2-Methyl-N-((6-(((1-methylpiperidin-4-yl)methyl)amino)pyridin-3-yl)methyl)-1H-pyrrolo[2,3-b]pyridin-4-amine] | – | 4.40 to 5.00 | < 4.40 | 6.52 to 7.00 | 4.40 to 5.00 | < 4.40
9 | CN1CC2CCC(C1)C2COc1cc(CNc2cccc3c(N)nccc23)ccn1 (stereo not drawn) [Example 4278, 5-N-[[2-[(3-methyl-3-azabicyclo[3.2.1]octan-8-yl)methoxy]-4-pyridyl]methyl]isoquinoline-1,5-diamine] | – | 5.52 to 6.00 | < 4.40 | 6.52 to 7.00 | < 4.40 | 5.00 to 5.52
10 | CN1CC2(CC(OCc3ccc(CNc4cccc5c(N)nccc45)c(F)c3)C2)C1 [Example 2206, 5-N-[[2-fluoro-4-[(2-methyl-2-azaspiro[3.3]heptan-6-yl)oxymethyl]phenyl]methyl]isoquinoline-1,5-diamine] | – | < 4.40 | 4.40 to 5.00 | 5.00 to 5.52 | < 4.40 | 4.40 to 5.00
11 | Nc1nccc2c(NCc3ccnc(OCC4CCn5c(nnc5C(F)F)C4)c3)cccc12 (stereo not drawn) [Example 4467, N5-((2-((3-(difluoromethyl)-5,6,7,8-tetrahydro-[1,2,4]triazolo[4,3-a]pyridin-7-yl)methoxy)pyridin-4-yl)methyl)isoquinoline-1,5-diamine] | – | 4.40 to 5.00 | < 4.40 | 6.52 to 7.00 | 4.40 to 5.00 | 5.00 to 5.52
12 | COc1nnc2n1CCN(c1ccc(CNc3cccc4c(N)nccc34)cn1)C2 [Example 1250, N5-((6-(3-methoxy-5,6-dihydro-[1,2,4]triazolo[4,3-a]pyrazin-7(8H)-yl)pyridin-3-yl)methyl)isoquinoline-1,5-diamine] | – | < 4.40 | < 4.40 | 5.52 to 6.00 | < 4.40 | 5.00 to 5.52
13 | CN1CCC(CNc2ccc(CNc3cncc4[nH]c(Cl)cc34)cn2)CC1 [Example 1251, 2-Chloro-N-((6-(((1-methylpiperidin-4-yl)methyl)amino)pyridin-3-yl)methyl)-1H-pyrrolo[2,3-c]pyridin-4-amine] | – | 5.52 to 6.00 | 4.40 to 5.00 | 7.00 to 8.00 | 5.00 to 5.52 | 4.40 to 5.00
14 | CN1CC(OCc2ccc(CNc3cccc4c(N)nccc34)c(F)c2)CCC1=O (stereo not drawn) [Example 2209, 5-[[4-[[(1-amino-5-isoquinolyl)amino]methyl]-3-fluoro-phenyl]methoxy]-1-methyl-piperidin-2-one] | – | < 4.40 | < 4.40 | 5.52 to 6.00 | < 4.40 | 4.40 to 5.00
15 | Nc1nccc2cc(NCc3ccnc(OCC4CCn5ccnc5C4)c3)ccc12 (single isomer, unassigned) [Example 4267, 6-N-({2-[(7S*)-5H,6H,7H,8H-imidazo[1,2-a]pyridin-7-ylmethoxy]pyridin-4-yl}methyl)isoquinoline-1,6-diamine] | – | 6.52 to 7.00 | 5.00 to 5.52 | 7.00 to 8.00 | 6.00 to 6.52 | 6.00 to 6.52
16 | CN1CCN(CCc2ccc(CNc3ccc4c(N)ncc(Cl)c4c3)c(F)c2)CC1 [Example 2184, 4-Chloro-N6-[[2-fluoro-4-[2-(4-methylpiperazin-1-yl)ethyl]phenyl]methyl]isoquinoline-1,6-diamine] | – | < 4.40 | < 4.40 | 5.00 to 5.52 | < 4.40 | 5.00 to 5.52
17 | CN1CCN(CCc2ccc(CNc3cccc4c(N)nccc34)c(F)c2)CC1 [Example 2182, 5-N-({2-fluoro-4-[2-(4-methylpiperazin-1-yl)ethyl]phenyl}methyl)isoquinoline-1,5-diamine] | – | < 4.40 | < 4.40 | 6.00 to 6.52 | < 4.40 | 4.40 to 5.00
18 | Nc1nccc2c(NCc3ccc(CCN4CCOCC4)cc3F)cccc12 [Example 2183, N5-[[2-fluoro-4-(2-morpholinoethyl)phenyl]methyl]isoquinoline-1,5-diamine] | – | < 4.40 | < 4.40 | 6.00 to 6.52 | < 4.40 | 4.40 to 5.00
19 | Cc1cc(NCc2ccnc(OCC3CCN(C)CC3)c2)cc2ccncc12 [Example 4464, 8-methyl-N-((2-((1-methylpiperidin-4-yl)methoxy)pyridin-4-yl)methyl)isoquinolin-6-amine] | – | < 4.00 | < 4.70 | 5.52 to 6.00 | < 5.40 | 5.00 to 5.52
20 | Cn1ccnc1CCOCc1ccc(CNc2cccc3c(N)nccc23)c(F)c1 [Example 2208, N5-[[2-fluoro-4-[2-(1-methylimidazol-2-yl)ethoxymethyl]phenyl]methyl]isoquinoline-1,5-diamine] | – | 4.40 to 5.00 | < 4.40 | 5.52 to 6.00 | 4.40 to 5.00 | 4.40 to 5.00
21 | Nc1nccc2c(NCc3ccc(CN4CCOCC4)cc3F)cccc12 [Example 1034, 5-N-{[2-fluoro-4-(morpholin-4-ylmethyl)phenyl]methyl}isoquinoline-1,5-diamine] | – | < 4.40 | < 4.40 | 4.40 to 5.00 | < 4.40 | 4.40 to 5.00
22 | CN1CCN(CCc2ccc(CNc3ccc4c(N)nccc4c3)c(F)c2)CC1 [Example 2181, 6-N-({2-fluoro-4-[2-(4-methylpiperazin-1-yl)ethyl]phenyl}methyl)isoquinoline-1,6-diamine] | – | 4.40 to 5.00 | 4.40 to 5.00 | 6.00 to 6.52 | 5.00 to 5.52 | 6.00 to 6.52
23 | CN1C[C@@H](COc2cc(CNc3cccc4c(N)nccc34)ccn2)OC1=O [Example 4279, (5S)-5-{[(4-{[(1-aminoisoquinolin-5-yl)amino]methyl}pyridin-2-yl)oxy]methyl}-3-methyl-1,3-oxazolidin-2-one] | – | < 4.40 | < 4.40 | 5.00 to 5.52 | < 4.40 | 4.40 to 5.00
24 | CC(=O)N1CC2CC1CC2COc1cc(CNc2ccc3c(N)nccc3c2)ccn1 (stereo not drawn) [Example 4275, 1-(5-(((4-(((1-aminoisoquinolin-6-yl)amino)methyl)pyridin-2-yl)oxy)methyl)-2-azabicyclo[2.2.1]heptan-2-yl)ethan-1-one] | – | 6.00 to 6.52 | 4.40 to 5.00 | 5.52 to 6.00 | 6.00 to 6.52 | 5.52 to 6.00
